# Reference: paper PMC12108080, “Sodium butyrate inhibits the expression of virulence factors in Vibrio cholerae by targeting ToxT protein” (mSphere, 2025)
# Tests used:
# ToxT [1] = biological target: T1, ToxT (Vibrio cholerae, UniProt P0C6D6); assay: intrinsic tryptophan fluorescence quenching, logarithmic plot; type: binding
# T1 construct: gene tcpN; 6xHis fusion from pHIS-Tev plasmid, expressed in E. coli BL21(DE3), Ni-agarose purified
# [2] = biological target: T2, ToxT (His6/NBP-ToxT fusion) (Vibrio cholerae N16961?) (UniProt P0C6D6); assay: competition; details: 10 mM Tris-HCl pH 7.5, 100 mM KCl, 1 mM EDTA, 1 mM DTT, 200 µg/mL BSA, 10% glycerol, […] (temperature not stated)
# T2 sequence: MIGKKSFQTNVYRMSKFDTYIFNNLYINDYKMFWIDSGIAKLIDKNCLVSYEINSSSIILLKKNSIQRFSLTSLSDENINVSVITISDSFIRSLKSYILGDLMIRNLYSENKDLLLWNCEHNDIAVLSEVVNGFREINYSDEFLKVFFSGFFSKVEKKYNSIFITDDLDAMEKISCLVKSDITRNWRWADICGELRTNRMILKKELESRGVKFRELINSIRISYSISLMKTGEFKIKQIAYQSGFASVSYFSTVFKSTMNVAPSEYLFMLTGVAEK
# ToxT [3] = biological target: T1, ToxT; type: binding; details: 1.0 µM ToxT pre-incubated with TB (40 mM) 20 min, 1 nM PtcpA DNA, pH 7.5
molecule,measurement,setting,value
"CCCC(=O)O [SB, sodium butyrate]",Kd,ToxT [1],2600 ± 30 µM
ATTGCTGAGCTAAAGGGGCTGGAAATTCAATGTCATCAGGCTGTTGCCAAGTGACGCGATTCAGTGCGGCTAAATAGAGCGAAGTTAATTGATTCATACTATTATTCAATTTGACGCTTTACCCGATTACCCTAGCTACCTGCAATACCA (double strand) [nonspecific competitor DNA],binding,[2],no binding
"CCCC(=O)OCC(COC(=O)CCC)OC(=O)CCC [TB, tributyrate]",inhibition of DNA binding,ToxT [3],"tributyrate (TB), was used, and it showed no inhibition on ToxT-DNA binding"
